The text below walks through data of publication PMC8119466, “A screen of FDA-approved drugs identifies inhibitors of protein tyrosine phosphatase 4A3 (PTP4A3 or PRL-3)” (Scientific Reports, 2021).

What all share (format): biochemical
For one test, the target named is T1, recombinant PRL-1 (Homo sapiens, UniProt Q93096).
T1 construct: 6xHis (N, cleaved yes); made in house; host or cells: E. coli One Shot BL21 Star
T1 sequence (Q93096 1-173): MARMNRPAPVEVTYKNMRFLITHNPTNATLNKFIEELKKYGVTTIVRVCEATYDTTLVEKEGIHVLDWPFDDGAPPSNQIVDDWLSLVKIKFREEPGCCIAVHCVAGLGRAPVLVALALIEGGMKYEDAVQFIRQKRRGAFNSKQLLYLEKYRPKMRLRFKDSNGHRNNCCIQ
Kind of test: In vitro phosphatase assay (DiFMUP hydrolysis), PRL-1. Also: test concentration or dose not given here.

In a further test the target is T2, recombinant PRL-3 (Homo sapiens, UniProt O75365).
T2 construct: 6xHis (N, cleaved yes); made in house; host or cells: E. coli One Shot BL21 Star
T2 sequence (O75365 whole entry): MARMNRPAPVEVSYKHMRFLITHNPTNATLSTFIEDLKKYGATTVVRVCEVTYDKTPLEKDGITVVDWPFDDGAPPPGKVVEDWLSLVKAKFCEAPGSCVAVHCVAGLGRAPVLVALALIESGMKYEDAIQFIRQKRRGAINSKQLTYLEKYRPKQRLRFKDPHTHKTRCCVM
In words: In vitro phosphatase assay (DiFMUP hydrolysis), PRL-3. Also: test concentration or dose not given here.

A further test has as its target T3, recombinant PRL-2 (Homo sapiens, UniProt Q12974).
T3 construct: 6xHis (N, cleaved yes); made in house; host or cells: E. coli One Shot BL21 Star
T3 sequence (Q12974 1-167): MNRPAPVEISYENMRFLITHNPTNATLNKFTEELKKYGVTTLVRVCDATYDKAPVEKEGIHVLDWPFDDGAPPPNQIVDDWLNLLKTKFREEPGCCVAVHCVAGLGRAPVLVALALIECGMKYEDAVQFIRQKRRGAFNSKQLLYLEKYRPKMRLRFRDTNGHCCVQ
In words: In vitro phosphatase assay (DiFMUP hydrolysis), PRL-2.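 Also: PRL-2 activity read as DiFMUP hydrolysis after 20 min at room temperature with drug, enzyme first pre-reduced at 4 °C for 20 min.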

[1] abbreviates: FDA-approved drug screen, compared to DMSO.
Setting [2] is: FDA-approved drug screen, activity compared to DMSO.

Each structure is given as a SMILES string. Structures can show the parent of a compound that is named as a salt. Where two headings read alike, the source gives them in different places. Residues, ends and D or L forms follow the SMILES beside them.

For `COC(=O)Nc1nc2ccc(C(=O)c3ccccc3)cc2[nH]1` [Mebendazole], the “% Phosphatase Activity (compared to DMSO) PRL-1” value at recombinant PRL-1 (setting [1]) worked out at 90%. In addition, the “% Phosphatase Activity (compared to DMSO) PRL-3” value at recombinant PRL-3 (setting [1]) came out at 79%. The “% Phosphatase Activity (compared to DMSO) PRL-2” value at recombinant PRL-2 (setting [1]) amounted to 83%.

In the case of `NCCCC[C@H](N[C@@H](CCc1ccccc1)C(=O)O)C(=O)N1CCC[C@H]1C(=O)O` [Lisinopril], the “% Phosphatase Activity (compared to DMSO) PRL-1” value at recombinant PRL-1 (setting [1]) came to 100%. The “% Phosphatase Activity (compared to DMSO) PRL-3” value on recombinant PRL-3 (setting [1]) worked out at 93%. In addition, the “% Phosphatase Activity (compared to DMSO) PRL-2” value at recombinant PRL-2 (setting [1]) was found to be 86%.

In the case of `Cl.O=C1Cc2cc(CCN3CCN(c4nsc5ccccc45)CC3)c(Cl)cc2N1` [Ziprasidone HCl], at recombinant PRL-1 (setting [2]), the “% Phosphatase Activity (compared to DMSO) PRL-1” value is recorded as 91%. In addition, the “% Phosphatase Activity (compared to DMSO) PRL-3” value on recombinant PRL-3 (setting [2]) came to 80%. At recombinant PRL-2 (setting [2]), the “% Phosphatase Activity (compared to DMSO) PRL-2” value is on record as 91%.

On to `Cn1c(=O)cc(N2CCC[C@@H](N)C2)n(Cc2ccccc2C#N)c1=O` [Alogliptin], for which the “% Phosphatase Activity (compared to DMSO) PRL-1” value on recombinant PRL-1 (setting [1]) is recorded as 112%. Also, the “% Phosphatase Activity (compared to DMSO) PRL-3” value on recombinant PRL-3 (setting [1]) was found to be 96%. For the same molecule, the “% Phosphatase Activity (compared to DMSO) PRL-2” value on recombinant PRL-2 (setting [1]) was 123%.

As for `CNCCC(Oc1ccc(C(F)(F)F)cc1)c1ccccc1.Cl` (stereo not drawn) [Fluoxetine HCl], on recombinant PRL-1 (setting [1]), the “% Phosphatase Activity (compared to DMSO) PRL-1” value turned out to be 93%. In addition, at recombinant PRL-3 (setting [1]), the “% Phosphatase Activity (compared to DMSO) PRL-3” value was 68%. For the same molecule, on recombinant PRL-2 (setting [1]), the “% Phosphatase Activity (compared to DMSO) PRL-2” value amounted to 105%.

With `CCCCOc1cc(C(=O)NCCN(CC)CC)c2ccccc2n1` [Dibucaine HCl], on recombinant PRL-1 (setting [1]), the “% Phosphatase Activity (compared to DMSO) PRL-1” value was 110%. Besides, the “% Phosphatase Activity (compared to DMSO) PRL-3” value at recombinant PRL-3 (setting [1]) was determined as 101%. Besides, on recombinant PRL-2 (setting [1]), the “% Phosphatase Activity (compared to DMSO) PRL-2” value is given as 108%.

In the case of `C[C@@H](O)[C@H]1C(=O)N2C(C(=O)O)=C(S[C@@H]3CN[C@H](C(=O)N(C)C)C3)[C@H](C)[C@H]12` [Meropenem], the “% Phosphatase Activity (compared to DMSO) PRL-1” value at recombinant PRL-1 (setting [1]) came to 104%. Moreover, the “% Phosphatase Activity (compared to DMSO) PRL-3” value at recombinant PRL-3 (setting [1]) turned out to be 57%. In addition, the “% Phosphatase Activity (compared to DMSO) PRL-2” value at recombinant PRL-2 (setting [1]) is given as 109%.

`COc1c(N2C[C@@H]3CCCN[C@@H]3C2)c(F)cc2c(=O)c(C(=O)O)cn(C3CC3)c12` [Moxifloxacin HCl]: the “% Phosphatase Activity (compared to DMSO) PRL-1” value at recombinant PRL-1 (setting [1]) was 562%. The “% Phosphatase Activity (compared to DMSO) PRL-3” value on recombinant PRL-3 (setting [1]) turned out to be 417%. The “% Phosphatase Activity (compared to DMSO) PRL-2” value on recombinant PRL-2 (setting [1]) was 594%.

`COC(=O)[C@H](Cc1ccccc1)NC(=O)[C@@H](N)CC(=O)O` [Aspartame] (H-Asp-Phe-OMe): the “% Phosphatase Activity (compared to DMSO) PRL-1” value on recombinant PRL-1 (setting [1]) was 92%. For the same molecule, the “% Phosphatase Activity (compared to DMSO) PRL-3” value on recombinant PRL-3 (setting [1]) was found to be 85%. In addition, the “% Phosphatase Activity (compared to DMSO) PRL-2” value at recombinant PRL-2 (setting [1]) is on record as 95%.

As for `CO[C@@H]1[C@@H](OC(N)=O)[C@@H](O)[C@H](Oc2ccc3c(O)c(NC(=O)c4ccc(O)c(CC=C(C)C)c4)c(=O)oc3c2C)OC1(C)C` [Novobiocin Sodium], the “% Phosphatase Activity (compared to DMSO) PRL-1” value at recombinant PRL-1 (setting [1]) is recorded as 94%. In addition, the “% Phosphatase Activity (compared to DMSO) PRL-3” value on recombinant PRL-3 (setting [1]) was determined as 70%. On recombinant PRL-2 (setting [1]), the “% Phosphatase Activity (compared to DMSO) PRL-2” value is 87%.

Consider `C[C@H](N[C@@H](CCc1ccccc1)C(=O)O)C(=O)N1CCC[C@H]1C(=O)O.O.O` [Enalaprilat Dihydrate], for which, on recombinant PRL-1 (setting [1]), the “% Phosphatase Activity (compared to DMSO) PRL-1” value stood at 102%. Further, at recombinant PRL-3 (setting [1]), the “% Phosphatase Activity (compared to DMSO) PRL-3” value amounted to 78%. Besides, on recombinant PRL-2 (setting [1]), the “% Phosphatase Activity (compared to DMSO) PRL-2” value is 102%.

For `N=C(N)NC(=O)c1nc(Cl)c(N)nc1N` [Amiloride hydrochloride dihydrate], the “% Phosphatase Activity (compared to DMSO) PRL-1” value on recombinant PRL-1 (setting [1]) came to 254%. The “% Phosphatase Activity (compared to DMSO) PRL-3” value on recombinant PRL-3 (setting [1]) is recorded as 220%. At recombinant PRL-2 (setting [1]), the “% Phosphatase Activity (compared to DMSO) PRL-2” value is reported as 219%.

For `Cc1cccc([C@H](C)c2c[nH]cn2)c1C.Cl` [Dexmedetomidine HCl (Precedex)], the “% Phosphatase Activity (compared to DMSO) PRL-1” value on recombinant PRL-1 is reported as 111%. On recombinant PRL-3, the “% Phosphatase Activity (compared to DMSO) PRL-3” value turned out to be 90%. The “% Phosphatase Activity (compared to DMSO) PRL-2” value at recombinant PRL-2 turned out to be 120%.

On to `O=C(O)c1cccnc1Nc1cccc(C(F)(F)F)c1` [Niflumic acid], for which the “% Phosphatase Activity (compared to DMSO) PRL-1” value on recombinant PRL-1 (setting [1]) was found to be 109%. Also, the “% Phosphatase Activity (compared to DMSO) PRL-3” value at recombinant PRL-3 (setting [1]) is 88%. The “% Phosphatase Activity (compared to DMSO) PRL-2” value at recombinant PRL-2 (setting [1]) is recorded as 112%.

For `CC(=O)NS(=O)(=O)c1ccc(NC(=O)c2ccccc2C(=O)O)cc1` [Phthalylsulfacetamide], the “% Phosphatase Activity (compared to DMSO) PRL-1” value at recombinant PRL-1 (setting [1]) is on record as 104%. On recombinant PRL-3 (setting [1]), the “% Phosphatase Activity (compared to DMSO) PRL-3” value is 101%. The “% Phosphatase Activity (compared to DMSO) PRL-2” value on recombinant PRL-2 (setting [1]) turned out to be 120%.

As for `CC(=O)/N=c1/sc(S(N)(=O)=O)nn1C` [Methazolamide], on recombinant PRL-1 (setting [1]), the “% Phosphatase Activity (compared to DMSO) PRL-1” value is 110%. Besides, the “% Phosphatase Activity (compared to DMSO) PRL-3” value on recombinant PRL-3 (setting [1]) was determined as 88%. Moreover, the “% Phosphatase Activity (compared to DMSO) PRL-2” value at recombinant PRL-2 (setting [1]) was 114%.
